The source of these data is US10004253B1, “Method for increasing the health condition of crustaceans in aquaculture, survival rate and pigmentation” (priority 2017, dated 2018).

SMILES strings stand for the structures.

The test system of one assay is white shrimp L. vannamei. Nature of the assay: Different sources and doses of carotenoids in balanced feed, 60 day treatment, Example 6. The class given is in vivo. Particulars: 75 ppm in feed. From the text:
6. —Effects of different sources and doses of carotenoids in the balanced feed, growout, survival, and deposition of pigments in white shrimp L. vannamei. The following is a review of the results obtained regarding the dosing of Lutein/Zeaxanthin Long Chain Diesters in the feed, as compared to feed that contained synthetic Astaxanthin (Carophyll Pink). The average survival and final weight results of the experimental work with shrimp L. vannamei results, obtained after a 60 day treatment, are shown in Table V: […]

The subject of another assay is P. monodon shrimp. Nature of the assay: Total pigment and Astaxanthin enantiomers deposited, commercial ponds, Example 7. It is filed as in vivo. As to conditions: feed with 60 ppm, sampled at three grams weight, lyophilized. The procedure:
The concentration of total pigment in crustacean specimens extract was carried out by UV/VIS spectrophotometric methods measurement absorbance at 470 nm (A 1%=2100 in Hexane).
The Astaxanthin enantiometers deposited by the crustaceans specimens, or from its different organs, were quantified by HPLC after derivatization into the corresponding dicamphanates (Vecchi and Muller 1979).
7. —Comparison of the different Astaxanthin enantiomers deposited by P. monodon that were given the following three different diets: commercial feed as control; commercial feed containing 120 ppm of Lutein or Zeaxanthin Long Chain Diesters Concentrate; and commercial feed that contained 60 ppm of synthetic Astaxanthin (Carophyll Pink). […]
At three grams weight, the ponds were sampled, the specimens were lyophillized and the dehydrated samples were ground and analyzed.
The concentration of total pigment in the crustacean specimens extract was carried out by UV/Vis spectrophotometric methods measurement absorbance at 470 nm (A 1%=2100 in hexane).
The analysis of Astaxanthin R/S enantiomers deposited by the crustacean specimens, were quantified by HPLC after derivatization into the corresponding dicamphanates (Vecchi and Muller 1979), in order to differentiate the Astaxanthin enantiomers.

For the compound `CC1=C(/C=C/C(C)=C/C=C/C(C)=C/C=C/C=C(C)/C=C/C=C(C)/C=C/C2=C(C)C(=O)[C@@H](O)CC2(C)C)C(C)(C)C[C@H](O)C1=O` [ROCHE Astaxanthin, Astaxanthin], in the assay with white shrimp L. vannamei, the “FINAL WEIGHT grs” value worked out at 7.77 grs and the SURVIVAL % is given as 63.33%. Besides, in the assay with white shrimp L. vannamei (HPLC), the “ASTAX. IN HEAD (hepathopanchreas)” value is listed as 29.2 micrograms of Astaxanthin per gram of tissue, the “ASTAX. IN MUSCLE” value was 11.4 micrograms of Astaxanthin per gram of tissue and the “ASTAX. IN SHELL (carapace)” value was 75.1 micrograms of Astaxanthin per gram of tissue. Moreover, the “Concentration of total pigment in specimens extract (UV/Vis 470 nm)” value in the assay on P. monodon shrimp came out at 152.5 ppm.
